From patent publication US20230257351A1, “SUBSTITUTED N-[…] HAVING P2X4 RECEPTOR ANTAGONISTIC ACTIVITY” (Bayer Aktiengesellschaft, priority 2020, published 2023)

How the values were obtained:
[1] = target: T1, rat P2X4 (Rattus norvegicus, UniProt P51577); test: FLIPR Method for Rat P2X4 1321N1 Astrocytoma Cells; format: cell-based; conditions: 1321N1 stably expressing rat P2X4; agonist MgATP 5 μM (EC80)
T1 construct: expressed in transfected cells
T1 sequence (P51577 1-388): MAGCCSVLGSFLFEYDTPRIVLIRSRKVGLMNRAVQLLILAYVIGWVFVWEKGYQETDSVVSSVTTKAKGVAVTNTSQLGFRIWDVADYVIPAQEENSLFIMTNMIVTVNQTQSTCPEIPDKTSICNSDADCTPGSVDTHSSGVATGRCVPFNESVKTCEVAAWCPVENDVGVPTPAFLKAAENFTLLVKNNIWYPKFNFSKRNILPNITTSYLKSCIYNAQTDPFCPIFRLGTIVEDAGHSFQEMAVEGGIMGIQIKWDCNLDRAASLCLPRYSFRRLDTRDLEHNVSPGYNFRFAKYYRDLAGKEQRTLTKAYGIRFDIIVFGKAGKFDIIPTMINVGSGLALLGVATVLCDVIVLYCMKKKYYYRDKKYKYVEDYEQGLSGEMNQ
Description: Compounds were tested on a 1321N1 cell line stably expressing rat P2X4. Cells were cultured on collagen-I-coated 384-well plates at a density of 10,000 cells/well and incubated overnight at 37° C., 5% CO2. P2X4 function was assessed by measuring intracellular calcium fluxes caused by Magnesium-ATP (MgATP) using the calcium-chelating dye Fluo8-AM (Molecular Devices) with the Fluorescent Imaging Plate Reader Tetra (FLIPR^Tetra; Molecular Devices CA). On the day of the assay, the medium was removed and the cells were incubated for 30 minutes at 37° C. and 5% CO2 in 30 μl of dye buffer (Hank's balanced salt solution, 10 mM HEPES, 1.8 mM CaCl2, 1 mM MgCl2, 2 mM probenecid, 5 mM D-glucose monohydrate, 5 μM Fluo8-AM, pH=7.4).
Compounds diluted in probenecid buffer (Hank's balanced salt solution, 10 mM HEPES, 1.8 mM CaCl2, 1 mM MgCl2, 2 mM probenecid, 5 mM D-glucose monohydrate, pH=7.4) at ten concentrations ranging from 25 μM to 1 nM (final concentration) were dispensed and incubated for 30 minutes at room temperature. The agonist, MgATP (Sigma-Aldrich Chemie GmbH, DE), was added at a final concentration of 5 μM, representing the EC80 routinely determined. The final assay volume was 50 μl and final DMSO concentration was 0.5%.
The fluorescence intensity reflecting intracellular calcium changes was recorded before and after MgATP addition, at an excitation and emission wavelengths of 470-495 nm and 515-575 nm respectively.
The compounds were tested in triplicates and fluorescence intensity raw data normalized to the agonist control and fitted to the four-parameter logistic equation:
Y=Bottom+(Top−Bottom)/(1+10^((Log IC50−X)*HillSlope))
Assay plate acceptance was based on the signal window (S/B)[…] and the reference compound pIC50 within ±[…] the mean of historic pIC50 of the compound. Failure to meet two of the three criteria determined exclusion of the plate's results. In Table 10 below the results for the assays are reported

[2] = target: T2, human P2X4 (Homo sapiens, UniProt Q99571); test: Human P2X4 HEK Cell FLIPR Assay; format: cell-based; conditions: HEK293 stably expressing human P2X4, agonist Bz-ATP 3 μM (EC80); for IC50: read-out: Human P2X4 HEK Cells (FLIPR Assay) avg IC50
T2 construct: expressed in transfected cells
T2 sequence (Q99571 1-388): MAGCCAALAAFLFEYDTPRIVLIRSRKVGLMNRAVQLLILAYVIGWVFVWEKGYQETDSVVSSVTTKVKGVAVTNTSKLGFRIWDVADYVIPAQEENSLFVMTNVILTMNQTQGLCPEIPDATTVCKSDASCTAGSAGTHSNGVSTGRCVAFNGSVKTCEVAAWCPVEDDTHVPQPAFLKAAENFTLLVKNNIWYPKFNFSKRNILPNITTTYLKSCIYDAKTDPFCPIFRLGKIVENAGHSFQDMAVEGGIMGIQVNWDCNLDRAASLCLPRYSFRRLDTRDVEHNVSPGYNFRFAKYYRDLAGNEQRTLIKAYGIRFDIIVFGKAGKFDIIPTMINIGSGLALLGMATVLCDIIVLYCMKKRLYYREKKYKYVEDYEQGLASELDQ
How it was run: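 Compounds were preincubated 30 min at room temperature on Fluo8-AM-loaded HEK293 cells stably expressing human P2X4. The response was the calcium fluorescence rise on Bz-ATP addition.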

Row | IC50 [1] | Rat P2X4 1321N1 Astrocytoma Cells (FLIPR Assay) avg Efficacy [1] | Human P2X4 HEK Cells (FLIPR Assay) avg Efficacy [2] | IC50 [2] | Compound
1 | 441 nM | 88% | 94% | 408 nM | CC(=O)N(c1cccc(C#N)c1)c1cc(NC(=O)Cc2c(F)cccc2Cl)ccn1 [Example 15, N-{4-[2-(2-chloro-6-fluorophenyl)acetamido]pyridin-2-yl}-N-(3-cyanophenyl)acetamide]
2 | 374 nM | 90% | 91% | 343 nM | CC(=O)N(c1ccc(F)c(C#N)c1)c1cc(NC(=O)Cc2ccccc2Cl)ccn1 [Example 21, N-{4-[2-(2-chlorophenyl)acetamido]pyridin-2-yl}-N-(3-cyano-4-fluorophenyl)acetamide]
3 | 217 nM | 95% | 98% | 482 nM | CC(=O)N(c1ccc(F)c(C#N)c1)c1cc(NC(=O)Cc2ccc(F)cc2Cl)ccn1 [Example 22, N-{4-[2-(2-chloro-4-fluorophenyl)acetamido]pyridin-2-yl}-N-(3-cyano-4-fluorophenyl)acetamide]
4 | 483 nM | 96% | 99% | 356 nM | CC(=O)N(c1ccc(F)c(C#N)c1)c1cc(NC(=O)Cc2cccc(F)c2Cl)ccn1 [Example 23, N-{4-[2-(2-chloro-3-fluorophenyl)acetamido]pyridin-2-yl}-N-(3-cyano-4-fluorophenyl)acetamide]
5 | 174 nM | 99% | 100% | 346 nM | CC(=O)N(c1ccc(F)c(C#N)c1)c1cc(NC(=O)Cc2c(Cl)cccc2Cl)ccn1 [Example 24, N-(3-cyano-4-fluorophenyl)-N-{4-[2-(2,6-dichlorophenyl)acetamido]pyridin-2-yl}acetamide]
6 | 851 nM | 100% | 100% | 524 nM | CC(=O)N(c1ccccc1)c1cc(NC(=O)Cc2ccccc2Cl)ccn1 [Example 25, N-{4-[2-(2-chlorophenyl)acetamido]pyridin-2-yl}-N-phenylacetamide]
7 | 649 nM | 101% | 102% | 660 nM | CC(=O)N(c1ccccc1)c1cc(NC(=O)Cc2ccc(F)cc2Cl)ccn1 [Example 26, N-{4-[2-(2-chloro-4-fluorophenyl)acetamido]pyridin-2-yl}-N-phenylacetamide]
8 | 652 nM | 99% | 97% | 242 nM | CC(=O)N(c1ccccc1)c1cc(NC(=O)Cc2c(Cl)cccc2Cl)ccn1 [Example 27, N-{4-[2-(2,6-dichlorophenyl)acetamido]pyridin-2-yl}-N-phenylacetamide]
9 | 92.5 nM | 77% | 91% | 391 nM | CC(=O)N(c1ccc(F)cc1)c1cc(NC(=O)Cc2cccc(C)c2C)ccn1 [Example 29, N-{4-[2-(2,3-dimethylphenyl)acetamido]pyridin-2-yl}-N-(4-fluorophenyl)acetamide]
10 | 727 nM | 96% | 98% | 384 nM | CC(=O)N(c1ccc(F)cc1)c1cc(NC(=O)Cc2ccccc2C(F)(F)F)ccn1 [Example 30, N-(4-fluorophenyl)-N-(4-{2-[2-(trifluoromethyl)phenyl]acetamido}pyridin-2-yl)acetamide]
11 | 801 nM | 100% | 101% | 355 nM | CC(=O)N(c1ccc(F)cc1)c1cc(NC(=O)Cc2cccc(F)c2C(F)(F)F)ccn1 [Example 32, N-(4-fluorophenyl)-N-(4-{2-[3-fluoro-2-(trifluoromethyl)phenyl]acetamido}pyridin-2-yl)acetamide]
12 | 1540 nM | 98% | 93% | 723 nM | CC(=O)N(c1ccc(F)cc1)c1cc(NC(=O)Cc2c(Cl)cccc2C#N)ccn1 [Example 33, N-{4-[2-(2-chloro-6-cyanophenyl)acetamido]pyridin-2-yl}-N-(4-fluorophenyl)acetamide]
13 | 170 nM | 94% | 97% | 199 nM | CC(=O)N(c1ccc(F)cc1)c1cc(NC(=O)Cc2c(C)cccc2C)ccn1 [Example 34, N-{4-[2-(2,6-dimethylphenyl)acetamido]pyridin-2-yl}-N-(4-fluorophenyl)acetamide]
14 | 290 nM | 90% | 91% | 206 nM | CC(=O)N(c1ccc(F)cc1)c1cc(NC(=O)Cc2ccccc2Cl)ccn1 [Example 36, N-{4-[2-(2-chlorophenyl)acetamido]pyridin-2-yl}-N-(4-fluorophenyl)acetamide]
15 | 242 nM | 96% | 95% | 894 nM | CC(=O)N(c1ccc(F)cc1)c1cc(NC(=O)Cc2ccc(F)cc2Cl)ccn1 [Example 37, N-{4-[2-(2-chloro-4-fluorophenyl)acetamido]pyridin-2-yl}-N-(4-fluorophenyl)acetamide]
16 | 136 nM | 98% | 96% | 232 nM | CC(=O)N(c1ccc(F)cc1)c1cc(NC(=O)Cc2c(Cl)cccc2Cl)ccn1 [Example 38, N-{4-[2-(2,6-dichlorophenyl)acetamido]pyridin-2-yl}-N-(4-fluorophenyl)acetamide]
17 | 152 nM | 98% | 100% | 335 nM | CC(=O)N(c1ccc(F)cc1)c1cc(NC(=O)Cc2c(Cl)cc(F)cc2Cl)ccn1 [Example 39, N-{4-[2-(2,6-dichloro-4-fluorophenyl)acetamido]pyridin-2-yl}-N-(4-fluorophenyl)acetamide]
18 | 194 nM | 75% | 90% | 308 nM | CC(=O)N(c1ccc(F)cc1)c1cc(NC(=O)Cc2c(F)cccc2Cl)ccn1 [Example 40, N-{4-[2-(2-chloro-6-fluorophenyl)acetamido]pyridin-2-yl}-N-(4-fluorophenyl)acetamide]
19 | 115 nM | 91% | 94% | 589 nM | CC(=O)N(c1ccc(F)cc1)c1cc(NC(=O)Cc2c(F)cc(F)cc2Cl)ccn1 [Example 41, N-{4-[2-(2-chloro-4,6-difluorophenyl)acetamido]pyridin-2-yl}-N-(4-fluorophenyl)acetamide]
